Key:
[1] = tested on: rabbit reticulocyte lysate system (RRL); conditions: cited from earlier work
[2] = tested on: XeIF4E1bΔN27; assay: time-synchronized fluorescence titration of cap analogue binding; design: species or system Xenopus laevis; conditions: 10% glycerol; for Kas + glycerol XeIF4E1bΔN27: equilibrium association constant
Excerpt: (§1) The time-synchronized fluorescence titration method, widely used to determine the affinity constants of cap–eIF4E complexes [[20,22–26]], measures the quenching of the intrinsic fluorescence of tryptophan residues due to cap binding (Fig. S2). Knowledge of the equilibrium association constant Kas enables the calculation of the free-energy changes involved in the interaction between eIF4E and ligand, according to the standard equation ΔG° = − RTlnKas.
(§2) For human eIF4E1a and eIF4E1b and also for Xenopus eIF4E1a and its mutated forms, measurements were carried out using 0.1 μM protein in 50 mM Hepes/KOH (pH 7.2), 134.5 mM KCl, 0.5 mM EDTA and 1 mM DTT. For Xenopus eIF4E1b(ΔN27), the concentration was 0.2 μM and glycerol was added to the buffer to 10% (v/v) final concentration. […] Fluorescence of measured samples was excited at 280 nm (2.5 nm bandwidth) and detected at 337 nm or 330 nm (4 nm bandwidth), thus reducing the signal originated from the free cap analogues. Measurements were carried out on a LS-55 spectrofluorometer (Perkin Elmer Co.) using freshly prepared proteins, and the fluorescence intensities were corrected for sample dilution and the inner filter effect.
(§3) Equilibrium association constants (Kas) were determined by fitting the theoretical dependence of fluorescence intensity on the total concentration of the cap analogue to the experimental data points, according to the equation described previously (see Ref. [22] and Fig. S2c).
(§4) The final Kas was calculated as a weighted average of 2–6 independent titrations with the weights taken as the reciprocal of the numerical standard deviation squared. Numerical, nonlinear least-squares regression analysis was performed using Origin 6.0 (Microcal Software Inc.). Obtained association constants were used to determine the Gibbs free energy according to the standard equation ΔG° = − RTlnKas.

[3] = target: T1, heIF4E1a (Homo sapiens, UniProt P06730); design: method as in PMID 17369309; conditions: equilibrium association constant; buffer without glycerol; footnote b; cited from earlier work
T1 construct: made in house; host or cells: E. coli Rosetta2(DE3)
T1 sequence (P06730 whole entry): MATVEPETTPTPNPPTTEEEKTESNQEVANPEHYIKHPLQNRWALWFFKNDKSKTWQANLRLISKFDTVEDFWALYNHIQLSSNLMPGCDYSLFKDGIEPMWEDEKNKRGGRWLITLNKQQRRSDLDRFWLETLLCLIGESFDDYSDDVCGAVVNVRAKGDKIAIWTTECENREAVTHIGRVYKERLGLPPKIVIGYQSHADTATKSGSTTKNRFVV

[4] = target: T2, XeIF4E1a (Xenopus laevis, UniProt P48597); assay: time-synchronized fluorescence titration of cap analogue binding; conditions: for Kas + glycerol XeIF4E1a / Kas − glycerol XeIF4E1a: equilibrium association constant; for Kas − glycerol XeIF4E1a: buffer without glycerol
T2 construct: made in house; host or cells: E. coli Rosetta2(DE3)
T2 sequence (P48597 whole entry): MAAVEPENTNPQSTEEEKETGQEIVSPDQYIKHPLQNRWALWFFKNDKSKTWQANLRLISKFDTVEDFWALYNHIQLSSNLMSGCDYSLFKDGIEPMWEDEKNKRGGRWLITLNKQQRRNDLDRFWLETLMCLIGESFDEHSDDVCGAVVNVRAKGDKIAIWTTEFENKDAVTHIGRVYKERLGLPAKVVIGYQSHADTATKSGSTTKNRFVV
Excerpt: as §1, §2, §3, §4

[5] = target: T3, heIF4E1b (Homo sapiens, UniProt A6NMX2); assay: as above; conditions: for Kas − glycerol heIF4E1b: equilibrium association constant, buffer without glycerol
T3 construct: made in house; host or cells: E. coli Rosetta2(DE3)
T3 sequence (A6NMX2 1-242): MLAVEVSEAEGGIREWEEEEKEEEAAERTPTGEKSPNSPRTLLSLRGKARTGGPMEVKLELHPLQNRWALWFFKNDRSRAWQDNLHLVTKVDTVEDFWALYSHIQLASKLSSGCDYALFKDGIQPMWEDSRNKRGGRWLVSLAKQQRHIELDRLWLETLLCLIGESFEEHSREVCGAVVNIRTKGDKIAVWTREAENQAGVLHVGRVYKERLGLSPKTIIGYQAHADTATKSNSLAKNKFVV
Excerpt: as §1, §2, §3, §4

[6] = tested on: heIF4E1b; assay: as above; design: species or system human; conditions: without glycerol
Excerpt: as §1, §2, §3, §4

[7] = tested on: XeIF4E1a; assay: as above; design: species or system Xenopus laevis; conditions: without glycerol
Excerpt: as §1, §2, §3, §4

[8] = tested on: in vitro translation; design: method as in PMID 10387101; conditions: Cai et al.; read-out: IC50 (inhibitory potency); cited from earlier work
[9] = target: T4, X4E1a2 (E101S/K102R) (Xenopus laevis, UniProt P48597, E101S/K102R); assay: fluorescence titration, XeIF4E1a mutant; type: binding; conditions: mutant (E101S/K102R) of XeIF4E1a
T4 construct: made in house; host or cells: E. coli Rosetta2(DE3)
T4 sequence (P48597 whole entry E101S/K102R): as the sequence (P48597 whole entry) above, with E101S, K102R counted along it
Excerpt: (§5) We tested the effect on cap-binding activity of these positions in the fluorescence assay with six mutated recombinant versions of Xenopus eIF4E1a (Fig. S4). The amino acids were introduced in XeIF4E1a sequentially in the order: E101S/K102R/S195A/M82S/T206L/T207S (numbering of the XeIF4E1a sequence is shifted backward by 4 amino acids relative to XeIF4E1b). […] The biggest contribution to the weaker cap binding of XeIF4E1a, in each case about 20%, resulted from changing Glu101 to Ser and Thr206 to Leu coupled with Thr207 to Ser, with the remaining mutations having only minor effects. […] Glu101 is a solvent-accessible amino acid and is proximal to Trp98 in the S3-S4 loop. […] Attenuation of the cap-binding affinity of XeIF4E1a resulting from mutating Thr206 and Thr207 is consistent with our results mentioned above showing significant influence of C-terminal loop residues on binding phosphate and the second nucleotide.
(§6) For human eIF4E1a and eIF4E1b and also for Xenopus eIF4E1a and its mutated forms, measurements were carried out using 0.1 μM protein in 50 mM Hepes/KOH (pH 7.2), 134.5 mM KCl, 0.5 mM EDTA and 1 mM DTT. For Xenopus eIF4E1b(ΔN27), the concentration was 0.2 μM and glycerol was added to the buffer to 10% (v/v) final concentration. […] The gradually increasing concentration of cap analogue quenches protein fluorescence without shifting the spectrum maximum, while at high concentrations, the fluorescence signal of free cap analogue dominates over the fluorescence from other solution components including free eIF4E and eIF4E in complex with cap (Fig. S2a). Fluorescence of measured samples was excited at 280 nm (2.5 nm bandwidth) and detected at 337 nm or 330 nm (4 nm bandwidth), thus reducing the signal originated from the free cap analogues. Measurements were carried out on a LS-55 spectrofluorometer (Perkin Elmer Co.) using freshly prepared proteins, and the fluorescence intensities were corrected for sample dilution and the inner filter effect.
(§7) Equilibrium association constants (Kas) were determined by fitting the theoretical dependence of fluorescence intensity on the total concentration of the cap analogue to the experimental data points, according to the equation described previously (see Ref. [22] and Fig. S2c). […] Along with Kas and the concentration of the active protein [P0^act], other parameters such as fL and ∆f = fPact − fPL are also gained from the fit, where fL represents the fluorescence efficiency of free cap analogue and ∆f represents the difference between the fluorescence efficiencies of the apo-protein and the complex (Fig. S2c).
as §4

[10] = target: T5, X4E1a6 (E101S/K102R/S195A/M82S/T206L/T207S) (Xenopus laevis, UniProt P48597, E101S/K102R/M82S/S195A/T206L/T207S); assay: fluorescence titration, XeIF4E1a mutant; type: binding; conditions: for Kas X4E1a6: mutant (E101S/K102R/S195A/M82S/T206L/T207S) of XeIF4E1a
T5 construct: made in house; host or cells: E. coli Rosetta2(DE3)
T5 sequence (P48597 whole entry M82S/E101S/K102R/S195A/T206L/T207S): as the sequence (P48597 whole entry) above, with M82S, E101S, K102R, S195A, T206L, T207S counted along it
Excerpt: as §5, §6, §7, §4

[11] = target: T6, X4E1a1 (E101S) (Xenopus laevis, UniProt P48597, E101S); assay: fluorescence titration, XeIF4E1a mutant; type: binding; conditions: mutant (E101S) of XeIF4E1a
T6 construct: made in house; host or cells: E. coli Rosetta2(DE3)
T6 sequence (P48597 whole entry E101S): as the sequence (P48597 whole entry) above, with E101S counted along it
Excerpt: as §5, §6, §7, §4

[12] = target: T7, X4E1a3 (E101S/K102R/S195A) (Xenopus laevis, UniProt P48597, E101S/K102R/S195A); assay: fluorescence titration, XeIF4E1a mutant; type: binding; conditions: mutant (E101S/K102R/S195A) of XeIF4E1a
T7 construct: made in house; host or cells: E. coli Rosetta2(DE3)
T7 sequence (P48597 whole entry E101S/K102R/S195A): as the sequence (P48597 whole entry) above, with E101S, K102R, S195A counted along it
Excerpt: as §5, §6, §7, §4

[13] = target: T8, X4E1a4 (E101S/K102R/S195A/M82S) (Xenopus laevis, UniProt P48597, E101S/K102R/M82S/S195A); assay: fluorescence titration, XeIF4E1a mutant; type: binding; conditions: mutant (E101S/K102R/S195A/M82S) of XeIF4E1a
T8 construct: made in house; host or cells: E. coli Rosetta2(DE3)
T8 sequence (P48597 whole entry M82S/E101S/K102R/S195A): as the sequence (P48597 whole entry) above, with M82S, E101S, K102R, S195A counted along it
Excerpt: as §5, §6, §7, §4

[14] = target: T9, X4E1a1’ (K102R) (Xenopus laevis, UniProt P48597, K102R); assay: fluorescence titration, XeIF4E1a mutant; type: binding; conditions: mutant (K102R) of XeIF4E1a
T9 construct: made in house; host or cells: E. coli Rosetta2(DE3)
T9 sequence (P48597 whole entry K102R): as the sequence (P48597 whole entry) above, with K102R counted along it
Excerpt: as §5, §6, §7, §4

[15] = target: eIF4E1a; design: method as in PMID 19351181; conditions: Ghosh et al.; cited from earlier work
[16] = target: T1, heIF4E1a; assay: time-synchronized fluorescence titration of cap analogue binding; conditions: change relative to m^7GTP; without glycerol
Excerpt: as §1, §2, §3, §4

[17] = change relative to m^7GTP, without glycerol

Compound	Ratio Kas (X4E1a) to Kas (X4E1bΔN27) [2]	Kas + glycerol XeIF4E1bΔN27 [2] [μM^− 1]	Kas − glycerol heIF4E1a [3]	Kas + glycerol XeIF4E1a ([4]; 10% glycerol) [μM^− 1]	Kas − glycerol XeIF4E1a [4] [μM^− 1]	Kas − glycerol heIF4E1b [5] [μM^− 1]	Ratio Kas (h4E1a) to Kas (h4E1b) [6]	Ratio Kas (h4E1a) to Kas (X4E1a) [7]	IC50 [8] [µM]	Kas X4E1a2 [9] [µM⁻¹]	Kas X4E1a6 [10] [µM⁻¹]	Kas X4E1a1 [11] [µM⁻¹]	Kas X4E1a3 [12] [µM⁻¹]	Kas X4E1a4 [13] [µM⁻¹]	Kas X4E1a1’ [14] [µM⁻¹]	also measured
COC1C(COP(=O)([O-])OP(=O)(O)OP(=O)(O)OCC2OC(n3cnc4c(=O)[nH]c(N)nc43)C(O)C2O)OC(n2c[n+](C)c3c(=O)[nH]c(N)nc32)C1O (centres unmarked) [m^7,3′OGpppG]																inhibitory potency and translational efficiency compared with m^7GpppG [1]: higher inhibitory potency and translational efficiency
Cn1c[n+]([C@@H]2O[C@H](COP(=O)(O)OP(=O)([O-])O)[C@@H](O)[C@H]2O)c2nc(N)[nH]c(=O)c21 [m^7GDP]	2.45	2.43 ± 0.15	17.76 ± 0.34 ^b μM^− 1	5.97 ± 0.37	11.42 ± 0.50	7.64 ± 0.71	2.32	1.56	7.5	8.80 ± 0.16	6.82 ± 0.17	10.1 ± 1.2	8.53 ± 0.36	7.68 ± 0.40	11.09 ± 0.21	Kas + glycerol X4E1a6 ([10]; 10% glycerol, Fig. 5d): 3.68 ± 0.10 µM⁻¹
Cn1c[n+]([C@@H]2O[C@H](COP(=O)(O)O)[C@@H](O)[C@H]2O)c2nc(N)[nH]c(=O)c21 [m^7GMP]				0.256 ± 0.018	0.567 ± 0.012	0.628 ± 0.016			382							Kd [15]: 7.5 µM
Cn1c[n+]([C@@H]2O[C@H](COP(=O)(O)OP(=O)([O-])OP(=O)(O)OC[C@H]3O[C@@H](n4cnc5c(=O)[nH]c(N)nc54)[C@H](O)[C@@H]3O)[C@@H](O)[C@H]2O)c2nc(N)[nH]c(=O)c21 [m^7GpppG]	2.59	0.883 ± 0.032	5.94 ± 0.39 ^b μM^− 1	2.291 ± 0.065	3.98 ± 0.11	3.53 ± 0.11	1.68	1.49		2.81 ± 0.10	2.54 ± 0.15	3.38 ± 0.16	2.417 ± 0.051	2.87 ± 0.11	3.341 ± 0.090	ΔΔG^o + glycerol XeIF4E1bΔN27 ([2]; change relative to m^7GTP): 1.268 ± 0.037 kcal/mol; ΔΔG^o + glycerol XeIF4E1a ([4]; change relative to m^7GTP, 10% glycerol): 1.351 ± 0.028 kcal/mol; ΔΔG^o − glycerol XeIF4E1a [4, 17]: 1.382 ± 0.032 kcal/mol; ΔΔG^o − glycerol heIF4E1b [5, 17]: 1.065 ± 0.040 kcal/mol; ΔΔG^o − glycerol heIF4E1a [16]: 1.423 ± 0.058 kcal/mol

— article PMC4306533, “Distinct Features of Cap Binding by eIF4E1b Proteins” (Journal of Molecular Biology, 2015)
